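Following 48 hours of exposure in 96-well plates, responses at five concentrations were used to interpolate endpoints linearly. GI50 = concentration required for 50% inhibition of growth.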 Calls of active or inactive are those of the source. Cut-off read from the data, not from the text of the source: active = GI50 up to about 1.1 µM and inactive = higher.
Columns and labels:
Test in all cases: NCI anticancer screen, dose series, 48 h
[1] = tested on: SNB-78
[2] = tested on: MCF7
[3] = tested on: Hs-578T
[4] = tested on: DU-145
[5] = tested on: PC-3
[6] = tested on: MDA-N
[7] = tested on: HOP-18
[8] = tested on: RXF 631
[9] = tested on: 786-0

Measured: GI50

COc1ccc(/C=C/C(=O)C(C)(C)C)cc1OC
inactive: [1] 38 µM

Cc1cn(C2CC(n3cc(Cn4ccc(=O)[nH]c4=O)nn3)C(CO)O2)c(=O)[nH]c1=O (stereo not given)
inactive: [2] > 100 µM | [3] > 100 µM | [4] > 100 µM | [5] > 100 µM | [6] > 100 µM

CN1CCC(C(=O)NNc2ccccc2)CC1
inactive: [7] > 61.5 µM | [1] > 100 µM

C#CCCCCC#Cc1ccccc1C(=O)OC
inactive: [7] > 100 µM

NC(=O)c1ncn2c1CNC(=O)C2
inactive: [2] > 100 µM | [3] > 100 µM | [4] > 100 µM | [5] > 100 µM

Nc1nc(Cl)cc(NCCCNc2cc(Cl)nc(N)n2)n1
inactive: [7] > 100 µM | [8] > 100 µM

Cc1ccc2c(O)cc(-c3ccc(F)cc3)nc2n1
inactive: [2] 26.4 µM | [3] 26.5 µM | [4] 81.7 µM | [6] 12.1 µM

COc1cc2c(cc1O)CCN(C)[C@H]2Cc1ccc(Oc2c(O)c(OC)cc3c2C[C@H]2c4c(c(OC)c(OC)c(OC)c4-3)CCN2C)cc1 [THALIFABERIDINE]
inactive: [2] 5.13 µM | [3] 5.3 µM | [4] 6.34 µM | [5] 4.31 µM | [9] 4.53 µM | [6] 4.94 µM

— ChEMBL document CHEMBL1201862, “PubChem BioAssay data set” (2004)
